Values belong to the compound of their own block, whether it stands above or below them.
What was measured:
[1] = Biodistribution and clearance of dye-loaded NPs after oral gavage; format: in vivo, mice; conditions: pancreas
Procedure: B6, NOD, or Nude mice were fasted for 4 h and treated with DIR- or coumarin 6-encapsulating NPs by oral gavage (50, 100, or 500 mg/kg, 250 μL). Free DIR or coumarin 6 (solubilized with 1% Tween 20) served as controls. […] Fluorescence data was fit to the one component exponential decay model: Y=Yf+(Yo−e^−kt).
Biodistribution in animals was conducted using fluorescent dye loaded pBA NPs. Animals were first fasted for 4 h prior to the experiment then orally gavaged with the NP formulations in saline followed by resumption of normal food and water. At 4 h post gavage, animals were euthanized, and organs were harvested to be fluorescently imaged. Quantitative fluorescence was conducted with a multispectral imaging platform (Bruker multispectral MS FX PRO imaging system).

[2] = Loading of dye/agents in NPs; format: physicochemical
Procedure: Polymer Synthesis and Nanoparticle (NP) formulation. […] Chloroform was utilized as the mobile phase with a flow rate of 1 mL/min and both the columns and RI detector were maintained at 40° C. MW characteristics were determined relative to a calibration curve generated from narrow polydispersity polystyrene standards (Aldrich Chemical). […] Polymers or the mixture (100 mg) was dissolved in 2 mL chloroform containing DIR (1 mg), coumarin 6 (10 mg), RAPA (10 mg) or iron oxide (1 mg). Phosphate-buffered saline (PBS, 100 μL) or the PBS containing INS (10 μg) was added dropwise to the chloroform polymer solution while vortexing and homogenized using an IKA T25 Digital Ultra-Turrax (IKA). This dispersant phase was then added dropwise to a continuous phase of 5% PVA and homogenized. The mixture was then added dropwise to 200 mL of 0.2% PVA and left stirring for 2 h to evaporate the solvent. NPs were collected by centrifugation at 12,000 rpm for 20 min at 4° C. and then washed 3 times with deionized water. The particles were lyophilized and stored at −20° C. The hydrodynamic diameter and surface charge of NPs were measured by a Malvern Zetasizer. A dispersion of NPs was filtrated through a 0.45 μm Millipore filter into cuvettes prior to the measurements. […] The morphology of the NPs was observed by Hitachi S-4800 High Resolution scanning electron microscopy (SEM, Norcross). A dispersion of NPs in ethanol (2 μL) was placed on the wafer substrate and dried at room temperature. The sample was mounted on the aluminum sample holder and then gold sputtered. […] NPs were dispersed in the media (citrate buffer solution, pH 2.0) at 37° C. in the presence of pepsin (10 mg/mL). At each time point, NPs were centrifuged, and supernatant was collected to measure the amount of DIR released from the particles using a plate reader (λex 750 nm, λem 790 nm, SpectraMax M5, Molecular Devices). Insulin release was quantified by the BCA assay.

[3] = tested on: rat microglia; conditions: cited from earlier work
[4] = tested on: mouse pancreatic β cell line (MIN6); experiment: Insulin production from pancreatic β cells (MIN6) by TGR5 activation; format: cell-based; conditions: 40 μg/mL, 25 mM glucose, compared with PLGA particles
Procedure: Concentration of insulin was measured using an Ultrasensitive Insulin ELISA kit (ALPCO). […] The pAkt production from CHO cells incubated with fresh or denatured insulin was compared to calculate percent bioactivity.
Concentration of insulin was measured using an Ultrasensitive Insulin ELISA kit (ALPCO).

[5] = tested on: fibroblasts from patients with either sporadic or familial Alzheimer's disease; conditions: cited from earlier work
[6] = cited from earlier work

- ΔY (Final-Initial) [1]: 1.42 % Initial Dose/cm^3
- k (clearance rate) ([1]; one phase decay fit): ~0.01 h⁻¹
- Loading of agent [2]: 6.7 μg per mg of particles
Compound: CCCCCCCCCCCCCCCCCCN1C(=CC=CC=CC=CC2=[N+](CCCCCCCCCCCCCCCCCC)c3ccccc3C2(C)C)C(C)(C)c2ccccc21.[I-] [DIR, 1,1′-dioctadecyl-3,3,3′,3′-tetramethylindotricarbocyanine iodide]

Compound: CC(CCC(=O)O)C1CC[C@H]2[C@@H]3[C@@H](O)C[C@@H]4C[C@H](O)CC[C@]4(C)[C@H]3CC[C@]12C (stereo partly shown) [UDCA, urso-deoxycholic acid]
- effect on IL-1β, nitric oxide, TNF-α [3]: reduce IL-1β and nitric oxide, and downregulate TNF-α
- insulin secretion from pancreatic β cells [4]: able to induce insulin secretion
- effect on mitochondrial function and Drp1 [5]: improve mitochondrial function and redistributes Drp1

- Loading of agent [2]: 84.3 μg per mg of particles
Compound: CCN(CC)c1ccc2cc(-c3nc4ccccc4s3)c(=O)oc2c1 [coumarin 6]
- Log P [6]: 1.8

Compound: insulin
- Loading of agent [2]: 0.02 μg per mg of particles
- loading of INS in pUDCA NPs [2]: approximately 20 ng/mg of NP

Reference: patent US20200316207A1, “POLYMERIC BILE ACID NANOPARTICLES AS ANTI-INFLAMMATORY AGENTS” (Yale University, priority 2015, published 2020)
